Data reported in US20150119363A1, “METHODS OF TREATING BACTERIAL INFECTIONS” (Rampex Pharmaceuticals, Inc., priority 2012, published 2015).

Experiments:
[1] = tested on: EC1007 KPC-3; test: Dose titration biapenem potentiation assay (MPC1); format: cell-based, Escherichia coli; details: biapenem 1 μg/mL
Experimental: (§1) The potency and spectrum of β-lactamase inhibitors is also determined by assessing their biapenem potentiation activity in a dose titration potentiation assay using strains expressing serine carbapemenases (such as KPC). The potentiation effect is observed as the ability of BLI compounds to inhibit growth in the presence of sub-inhibitory concentration of biapenem. […] Biapenem is present in the test medium at 1 μg/mL. Compounds tested at the highest concentration of 40 μg/mL. […] Table 5 summarizes BLI potency of biapenem potentiation (MPC1). Biapenem MIC for each strain is also shown.

[2] = tested on: KP1008 KPC-2; test: Dose titration biapenem potentiation assay (MPC1); format: cell-based, Klebsiella pneumoniae; details: biapenem 1 μg/mL
Experimental: as §1

[3] = tested on: KP1004 KPC-2; test: Dose titration biapenem potentiation assay (MPC1); format: cell-based, Klebsiella pneumoniae; details: biapenem 1 μg/mL
Experimental: as §1

[4] = tested on: ECL1004 NMC-A; test: Dose titration biapenem potentiation assay (MPC1); format: cell-based, Enterobacter cloacae; details: biapenem 1 μg/mL
Experimental: as §1

[5] = tested on: E. coli EC1061 (NDM-1 CMY-6); test: Aztreonam/Tigemonam MIC at various concentrations of BLI; format: cell-based; details: Escherichia coli, read-out: Aztreonam MIC (μg/ml) in the presence of BLI
Experimental: MIC values for each bacterial strain were measured for each antimicrobial compound at various concentrations of each BLI. […]

[6] = tested on: K. pneumoniae KP1081 (NDM-1, CMY-6, SHV-11, CTX-M-15, TEM-1); test: as above; format: cell-based; details: Klebsiella pneumoniae, read-out: Aztreonam MIC (μg/ml) in the presence of BLI
Experimental: MIC values for each bacterial strain were measured for each antimicrobial compound at various concentrations of each BLI.

Compound | BPM MPC1 EC1007 KPC-3 [1] | BPM MPC1 KP1008 KPC-2 [2] | BPM MPC1 KP1004 KPC-2 [3] | BPM MPC1 ECL1004 NMC-A [4] | MIC [5] [µg/mL] | MIC [6] [µg/mL]
N[C@@H](CCC(=O)N[C@H]1CC[C@@H](CC(=O)O)OB1O)C(=O)O [Compound 35, (S)-2-amino-5-((3R,6S)-6-(carboxymethyl)-2-hydroxy-1,2-oxaborinan-3-ylamino)-5-oxopentanoic acid] | X (X = MPC1 of less than 1 μg/mL.) | X (X = MPC1 of less than 1 μg/mL.) | X (X = MPC1 of less than 1 μg/mL.) | Y (Y = MPC1 of 1 μg/mL to 5 μg/mL.) | – | –
O=C(O)C[C@@H]1CC[C@H](NC(=O)C[C@H]2CCCCN2)B(O)O1 [Compound 52, 2-((3R,6S)-2-hydroxy-3-(2-((R)-piperidin-2-yl)acetamido)-1,2-oxaborinan-6-yl)acetic acid] | X (X = MPC1 of less than 1 μg/mL.) | X (X = MPC1 of less than 1 μg/mL.) | X (X = MPC1 of less than 1 μg/mL.) | Y (Y = MPC1 of 1 μg/mL to 5 μg/mL.) | – | –
NCCSCC(=O)N[C@H]1CC[C@@H](CC(=O)O)OB1O [Compound 48, 2-((3R,6S)-3-(2-(2-aminoethylthio)acetamido)-2-hydroxy-1,2-oxaborinan-6-yl)acetic acid] | X (X = MPC1 of less than 1 μg/mL.) | X (X = MPC1 of less than 1 μg/mL.) | X (X = MPC1 of less than 1 μg/mL.) | X (X = MPC1 of less than 1 μg/mL.) | – | –
O=C(O)C[C@@H]1CC[C@H](NC(=O)Cc2cc(F)cc(F)c2)B(O)O1 [Compound 66, 2-((3R,6S)-3-(2-(3,5-difluorophenyl)acetamido)-2-hydroxy-1,2-oxaborinan-6-yl)acetic acid] | X (X = MPC1 of less than 1 μg/mL.) | X (X = MPC1 of less than 1 μg/mL.) | X (X = MPC1 of less than 1 μg/mL.) | X (X = MPC1 of less than 1 μg/mL.) | – | –
O=C(O)C[C@@H]1CC[C@H](NC(=O)[C@H]2Cc3ccccc3CN2)B(O)O1 [Compound 46, 2-((3R,6S)-2-hydroxy-3-((R)-1,2,3,4-tetrahydroisoquinoline-3-carboxamido)-1,2-oxaborinan-6-yl)acetic acid] | X (X = MPC1 of less than 1 μg/mL.) | X (X = MPC1 of less than 1 μg/mL.) | X (X = MPC1 of less than 1 μg/mL.) | X (X = MPC1 of less than 1 μg/mL.) | – | –
O=C(O)C[C@@H]1CC[C@H](NC(=O)c2ccc(Cn3cnnn3)cc2)B(O)O1 [Compound 56, 2-((3R,6S)-3-(4-((1H-tetrazol-1-yl)methyl)benzamido)-2-hydroxy-1,2-oxaborinan-6-yl)acetic acid] | X (X = MPC1 of less than 1 μg/mL.) | X (X = MPC1 of less than 1 μg/mL.) | X (X = MPC1 of less than 1 μg/mL.) | X (X = MPC1 of less than 1 μg/mL.) | – | –
O=C(O)CC1CCC[C@H](NC(=O)Cc2cccs2)B(O)O1 (stereo partly drawn) [Compound 63, 2-((3R)-2-hydroxy-3-(2-(thiophen-2-yl)acetamido)-1,2-oxaborepan-7-yl)acetic acid] | Y (Y = MPC1 of 1 μg/mL to 5 μg/mL.) | X (X = MPC1 of less than 1 μg/mL.) | Y (Y = MPC1 of 1 μg/mL to 5 μg/mL.) | Y (Y = MPC1 of 1 μg/mL to 5 μg/mL.) | – | –
O=C(O)C[C@@H]1CC[C@H](NC(=O)Cc2ccccn2)B(O)O1 [Compound 57, 2-((3R,6S)-2-hydroxy-3-(2-(pyridin-2-yl)acetamido)-1,2-oxaborinan-6-yl)acetic acid] | X (X = MPC1 of less than 1 μg/mL.) | X (X = MPC1 of less than 1 μg/mL.) | X (X = MPC1 of less than 1 μg/mL.) | X (X = MPC1 of less than 1 μg/mL.) | – | –
Cc1nc2ccccc2n1CCC(=O)N[C@H]1CC[C@@H](CC(=O)O)OB1O [Compound 55] | X (X = MPC1 of less than 1 μg/mL.) | X (X = MPC1 of less than 1 μg/mL.) | X (X = MPC1 of less than 1 μg/mL.) | X (X = MPC1 of less than 1 μg/mL.) | – | –
O=C(O)C[C@@H]1CC[C@H](NC(=O)CCc2nnc(-c3ccccc3)o2)B(O)O1 [Compound 60, 2-((3R,6S)-2-hydroxy-3-(3-(5-phenyl-1,3,4-oxadiazol-2-yl)propanamido)-1,2-oxaborinan-6-yl)acetic acid] | X (X = MPC1 of less than 1 μg/mL.) | X (X = MPC1 of less than 1 μg/mL.) | X (X = MPC1 of less than 1 μg/mL.) | X (X = MPC1 of less than 1 μg/mL.) | – | –
CC(C)(O/N=C(\C(=O)N[C@H]1CC[C@@H](CC(=O)O)OB1O)c1csc(N)n1)C(=O)O [Compound 36, 2-((Z)-1-(2-aminothiazol-4-yl)-2-((3R,6S)-6-(carboxymethyl)-2-hydroxy-1,2-oxaborinan-3-ylamino)-2-oxoethylideneaminooxy)-2-methylpropanoic acid] | Y (Y = MPC1 of 1 μg/mL to 5 μg/mL.) | X (X = MPC1 of less than 1 μg/mL.) | Z (Z = MPC1 of greater than 5 μg/mL.) | X (X = MPC1 of less than 1 μg/mL.) | – | –
O=C(O)C[C@@H]1CC[C@H](NC(=O)Cn2ccnc2-c2ccccc2)B(O)O1 [Compound 54, 2-((3R,6S)-2-hydroxy-3-(2-(2-phenyl-1H-imidazol-1-yl)acetamido)-1,2-oxaborinan-6-yl)acetic acid] | X (X = MPC1 of less than 1 μg/mL.) | X (X = MPC1 of less than 1 μg/mL.) | X (X = MPC1 of less than 1 μg/mL.) | X (X = MPC1 of less than 1 μg/mL.) | – | –
N=C(N)NCCC[C@@H](N)C(=O)N[C@H]1CC[C@@H](CC(=O)O)OB1O [Compound 47] | X (X = MPC1 of less than 1 μg/mL.) | X (X = MPC1 of less than 1 μg/mL.) | Y (Y = MPC1 of 1 μg/mL to 5 μg/mL.) | Z (Z = MPC1 of greater than 5 μg/mL.) | – | –
NCCC(=O)N[C@H]1CC[C@@H](CC(=O)O)OB1O [Compound 34, 2-((3R,6S)-3-(3-aminopropanamido)-2-hydroxy-1,2-oxaborinan-6-yl)acetic acid] | X (X = MPC1 of less than 1 μg/mL.) | X (X = MPC1 of less than 1 μg/mL.) | X (X = MPC1 of less than 1 μg/mL.) | Y (Y = MPC1 of 1 μg/mL to 5 μg/mL.) | – | –
N[C@H](C(=O)N[C@H]1CC[C@@H](CC(=O)O)OB1O)c1ccccc1 [Compound 33, 2-((3R,6S)-3-((S)-2-amino-2-phenylacetamido)-2-hydroxy-1,2-oxaborinan-6-yl)acetic acid] | X (X = MPC1 of less than 1 μg/mL.) | X (X = MPC1 of less than 1 μg/mL.) | X (X = MPC1 of less than 1 μg/mL.) | X (X = MPC1 of less than 1 μg/mL.) | – | –
CCOC(=O)C[C@@H]1CC[C@H](NC(=O)Cc2cccs2)B(O)O1 [Compound 65, ethyl 2-((3R,6S)-2-hydroxy-3-(2-(thiophen-2-yl)acetamido)-1,2-oxaborinan-6-yl)acetate] | Y (Y = MPC1 of 1 μg/mL to 5 μg/mL.) | X (X = MPC1 of less than 1 μg/mL.) | Y (Y = MPC1 of 1 μg/mL to 5 μg/mL.) | Z (Z = MPC1 of greater than 5 μg/mL.) | – | –
C[C@H]1[C@H](NC(=O)/C(=N\OC(C)(C)C(=O)O)c2csc(N)n2)C(=O)N1S(=O)(=O)O [Aztreonam, reference compound] | – | – | – | – | 16 | 256
NC(Cc1cccnc1)C(=O)N[C@H]1CC[C@@H](CC(=O)O)OB1O (stereo partly drawn) [Compound 42, 2-((3R,6S)-3-(2-amino-3-(pyridin-3-yl)propanamido)-2-hydroxy-1,2-oxaborinan-6-yl)acetic acid] | X (X = MPC1 of less than 1 μg/mL.) | X (X = MPC1 of less than 1 μg/mL.) | X (X = MPC1 of less than 1 μg/mL.) | Y (Y = MPC1 of 1 μg/mL to 5 μg/mL.) | – | –
O=C(O)C[C@@H]1CC[C@H](NC(=O)[C@@H]2CCCCN2)B(O)O1 [Compound 45, 2-((3R,6S)-2-hydroxy-3-((S)-piperidine-2-carboxamido)-1,2-oxaborinan-6-yl)acetic acid] | X (X = MPC1 of less than 1 μg/mL.) | X (X = MPC1 of less than 1 μg/mL.) | Y (Y = MPC1 of 1 μg/mL to 5 μg/mL.) | Z (Z = MPC1 of greater than 5 μg/mL.) | – | –
CO/N=C(\C(=O)N[C@H]1CC[C@@H](CC(=O)O)OB1O)c1csc(N)n1 [Compound 40, 2-((3R,6S)-3-((Z)-2-(2-aminothiazol-4-yl)-2-(methoxyimino)acetamido)-2-hydroxy-1,2-oxaborinan-6-yl)acetic acid] | Y (Y = MPC1 of 1 μg/mL to 5 μg/mL.) | X (X = MPC1 of less than 1 μg/mL.) | Y (Y = MPC1 of 1 μg/mL to 5 μg/mL.) | Y (Y = MPC1 of 1 μg/mL to 5 μg/mL.) | – | –
